Assay results taken from patent publication US10301351B2, “Stitched polypeptides” (President and Fellows of Harvard College, priority 2007, dated 2019).
Bridge positions count the residues as written; N and C are the ends. Square brackets hold non-standard residues; d marks the D form. S8 = C=CCCCCCC[C@](C)(N)C(=O)O; R5 = C=CCCC[C@@](C)(N)C(=O)O; S5 = C=CCCC[C@](C)(N)C(=O)O; Aib = CC(C)(N)C(=O)O

What was measured:
[1] = Circular dichroism, temperature-dependent spectra and thermal unfolding curves; format: physicochemical
Experimental: Peptides were dissolved in water to described concentrations, and the concentrations were determined by absorbance spectroscopy (extinction coefficient for tryptophan, ε280=5690 cm^-1). Circular dichroism spectra were collected on a Jasco J-710 spectropolarimeter equipped with a temperature controller using the following standard measurement parameters: 0.5 nm step resolution, 20 nm/sec speed, 10 accumulations, 1 sec response, 1 nm bandwidth, 0.1 cm path length. All spectra were converted to a uniform scale of molar ellipticity after background subtraction. Temperature-dependent CD spectra of each peptide (94-100 μM) were recorded at varying temperatures (4° C. and every 10° C. from 10° C. to 90° C.) from 260 to 185 nm. CD measurements with varying concentrations (18, 48, 70, and 118 μM) of peptide 4 were performed at 20° C. To generate thermal unfolding curves, the ellipticity at 222 nm for each peptide (94-100 μM) was measured every 1° C. from 4 to 95° C. with temperature slope of 3° C./min. To obtain Tm, we analyzed the thermal unfolding curves using a two-state model as previously described with 95% confidence interval (see […]. Biophysic. J. 2003, 85, 1457-1465). […] However, peptide 4 retained more than 50% of their alpha-helicity even at 95° C.

[2] = system: chymotrypsin; experiment: Stability of peptides against chymotrypsin; format: in vitro ADME; conditions: compared with stapled peptide 5
[3] = molecular target: T1, trypsin (Bos taurus, UniProt P00760); format: in vitro ADME; conditions: for slope of ln[S] versus time (first order kinetics of trypsin digestion): 0.1 M NH4HCO3 buffer pH 8.0, room temperature
T1 construct: purchased Pierce 20230
T1 sequence (P00760 24-246): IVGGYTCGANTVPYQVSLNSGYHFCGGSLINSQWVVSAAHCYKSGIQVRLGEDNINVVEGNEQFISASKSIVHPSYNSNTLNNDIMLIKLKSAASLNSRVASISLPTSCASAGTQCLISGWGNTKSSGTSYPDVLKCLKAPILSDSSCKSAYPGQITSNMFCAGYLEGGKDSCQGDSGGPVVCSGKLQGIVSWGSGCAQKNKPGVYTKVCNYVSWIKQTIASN
Experimental: 0.4 mL of trypsin immobilized on agarose (Pierce, catalog #20230) was washed with 0.8 mL of a digestion buffer (0.1 M NH4HCO3 buffer, pH 8.0). The gel was separated from the buffer after each wash by centrifugation. The washed enzyme was suspended in 1.6 mL of the digestion buffer. 350 μL of a peptide solution (24 μM) in the digestion buffer was mixed with 150 μL of the enzyme suspension and the resulting mixture was incubated with rapid shaking at room temperature for 10, 30, 90, 135, 180 minutes. The incubation was quenched by filtering off the enzyme, and the residual substrate in the filtrate was quantified by HPLC-based peak detection at 280 nm.

[4] = Stability of peptides against guanidine hydrochloride (helicity); format: physicochemical

alpha-helicity retained ([1]; at 95° C.)	stability against chymotrypsin (in words) [2]	slope of ln[S] versus time (first order kinetics of trypsin digestion) [3]	half-life ([3]; pH 8) [h]	Molecule	helical character by CD (in words) [1]	cooperative melting transition point (in words) ([1]; 4 to 95° C.)	thermal stability of the helix by CD (in words) ([1]; increasing temperature)	stability against the denaturing agent guanidine hydrochloride (in words) [4]	cooperative melting transition (Tm) ([1]; CD ellipticity at 222 nm, 4 to 95° C., peptide 94-100 μM in water, two-state model) [°C]
more than 50%	higher level of stability	4.04±0.16×10^−5 min^−1	2.87	CC(=O)N[C@@H](CCC(=O)O)C(=O)N[C@@H](Cc1c[nH]c2ccccc12)C(=O)N[C@@H](C)C(=O)N[C@@]1(C)CCC/C=C\CCC[C@]2(CCC/C=C/CCCCCC[C@@](C)(C(N)=O)NC(=O)[C@H](Cc3c[nH]cn3)NC(=O)[C@H](C)NC(=O)[C@H](C)NC(=O)[C@H](CC(C)C)NC(=O)[C@H](Cc3ccccc3)NC(=O)[C@H](CCCCN)NC2=O)NC(=O)[C@H](C)NC(=O)[C@H](C)NC(=O)[C@H]([C@@H](C)O)NC1=O [Peptide 4]	displayed the characteristic CD signature of alpha-helices	did not have a cooperative melting transition point	less affected by increasing temperature than single-stapled peptides 5 and 6	remains fully helical even at extremely high concentrations of guanidine salt	–
–	–	7.11±0.66×10^−5 min^−1	–	Peptide 5: single-stapled peptide, RCM product of Table 5 entry IX (SEQ ID 9) (Ac-EWA[Aib]TAA[R5]KFLAAH[S8]-NH2; staple 8-15 (inferred))	–	–	–	–	57
–	–	–	–	Peptide 8: i+4+4 stitched peptide, double RCM product of Table 5 entry XI (SEQ ID 11) (Ac-EWA[S5]TAA[2‑amino‑2‑(pent-4-enyl)hept‑6‑enoic acid]KFL[R5]AHA-NH2; staple 8-12, 4-8)	helical character greater than the stapled peptide 5 and less than that of the i+4+7 stitched peptide 4	did not have a cooperative melting transition point	–	–	–
